Data: the NIST ThermoML archive (doi:10.1016/j.jct.2012.08.010)

Assay: refractive index (Na D-line) (dimensionless); φn = volume fraction of the nth substance listed
Conditions: 101 kPa, Liquid, Standard Abbe refractometry

C=C[Si]1(C)O[Si](C)(C=C)O[Si](C)(C=C)O[Si](C)(C=C)O1 (stereo not given) [2,4,6,8-tetramethyl-2,4,6,8-tetravinylcycloterasiloxane] + Cc1cccc(C)c1
Conditions | refractive index
288.15 K, φ1 = 0.1301 | 1.4916
288.15 K, φ1 = 0.2524 | 1.48392
288.15 K, φ1 = 0.3347 | 1.47877
288.15 K, φ1 = 0.4159 | 1.47367
288.15 K, φ1 = 0.4865 | 1.46917
288.15 K, φ1 = 0.5517 | 1.46505
288.15 K, φ1 = 0.5985 | 1.46211
288.15 K, φ1 = 0.653 | 1.45885
288.15 K, φ1 = 0.6984 | 1.45591
288.15 K, φ1 = 0.7389 | 1.45344
288.15 K, φ1 = 0.776 | 1.45106
288.15 K, φ1 = 0.8087 | 1.44894
288.15 K, φ1 = 0.8405 | 1.44691
288.15 K, φ1 = 0.866 | 1.44524
288.15 K, φ1 = 0.8941 | 1.44346
288.15 K, φ1 = 0.9183 | 1.44189
288.15 K, φ1 = 0.941 | 1.44046
288.15 K, φ1 = 0.9804 | 1.43797
288.15 K, φ1 = 1 | 1.43674
298.15 K, φ1 = 0.1302 | 1.48641
298.15 K, φ1 = 0.2525 | 1.4788
298.15 K, φ1 = 0.3347 | 1.47372
298.15 K, φ1 = 0.416 | 1.46865
298.15 K, φ1 = 0.4866 | 1.46426
298.15 K, φ1 = 0.5518 | 1.46017
298.15 K, φ1 = 0.5986 | 1.45726
298.15 K, φ1 = 0.6531 | 1.454
298.15 K, φ1 = 0.6984 | 1.45105
298.15 K, φ1 = 0.7389 | 1.44845
298.15 K, φ1 = 0.7761 | 1.4461
298.15 K, φ1 = 0.8087 | 1.44408
298.15 K, φ1 = 0.8405 | 1.44212
298.15 K, φ1 = 0.866 | 1.44048
298.15 K, φ1 = 0.8941 | 1.4387
298.15 K, φ1 = 0.9183 | 1.43717
298.15 K, φ1 = 0.941 | 1.43574
298.15 K, φ1 = 0.9804 | 1.43324
298.15 K, φ1 = 1 | 1.43202
308.15 K, φ1 = 0.1302 | 1.48109
308.15 K, φ1 = 0.2525 | 1.47359
308.15 K, φ1 = 0.3348 | 1.46856
308.15 K, φ1 = 0.4161 | 1.46354
308.15 K, φ1 = 0.4867 | 1.45917
308.15 K, φ1 = 0.5519 | 1.45513
308.15 K, φ1 = 0.5987 | 1.45223
308.15 K, φ1 = 0.6532 | 1.44903
308.15 K, φ1 = 0.6985 | 1.4461
308.15 K, φ1 = 0.739 | 1.44355
308.15 K, φ1 = 0.7761 | 1.44125
308.15 K, φ1 = 0.8088 | 1.43919
308.15 K, φ1 = 0.8406 | 1.43727
308.15 K, φ1 = 0.8661 | 1.43566
308.15 K, φ1 = 0.8942 | 1.43391
308.15 K, φ1 = 0.9183 | 1.4324
308.15 K, φ1 = 0.941 | 1.43098
308.15 K, φ1 = 0.9804 | 1.4285
308.15 K, φ1 = 1 | 1.4273
318.15 K, φ1 = 0.1303 | 1.47582
318.15 K, φ1 = 0.2526 | 1.46841
318.15 K, φ1 = 0.3349 | 1.46342
318.15 K, φ1 = 0.4162 | 1.45843
318.15 K, φ1 = 0.4867 | 1.45413
318.15 K, φ1 = 0.5519 | 1.45015
318.15 K, φ1 = 0.5988 | 1.44727
318.15 K, φ1 = 0.6533 | 1.44383
318.15 K, φ1 = 0.6986 | 1.44117
318.15 K, φ1 = 0.7391 | 1.43865
318.15 K, φ1 = 0.7762 | 1.43639
318.15 K, φ1 = 0.8088 | 1.43434
318.15 K, φ1 = 0.8406 | 1.43244
318.15 K, φ1 = 0.8661 | 1.43085
318.15 K, φ1 = 0.8942 | 1.42911
318.15 K, φ1 = 0.9184 | 1.42763
318.15 K, φ1 = 0.9411 | 1.42622
318.15 K, φ1 = 0.9804 | 1.42377
318.15 K, φ1 = 1 | 1.42257
328.15 K, φ1 = 0.1303 | 1.47053
328.15 K, φ1 = 0.2526 | 1.46321
328.15 K, φ1 = 0.335 | 1.45825
328.15 K, φ1 = 0.4163 | 1.45333
328.15 K, φ1 = 0.4868 | 1.44908
328.15 K, φ1 = 0.552 | 1.44511
328.15 K, φ1 = 0.5988 | 1.44229
328.15 K, φ1 = 0.6533 | 1.43851
328.15 K, φ1 = 0.6986 | 1.43604
328.15 K, φ1 = 0.7391 | 1.43374
328.15 K, φ1 = 0.7762 | 1.43152
328.15 K, φ1 = 0.8089 | 1.42952
328.15 K, φ1 = 0.8407 | 1.42761
328.15 K, φ1 = 0.8661 | 1.42604
328.15 K, φ1 = 0.8942 | 1.42434
328.15 K, φ1 = 0.9184 | 1.42285
328.15 K, φ1 = 0.9411 | 1.42145
328.15 K, φ1 = 0.9804 | 1.41904
328.15 K, φ1 = 1 | 1.41785

C=C[Si]1(C)O[Si](C)(C=C)O[Si](C)(C=C)O[Si](C)(C=C)O1 (stereo not given) [2,4,6,8-tetramethyl-2,4,6,8-tetravinylcycloterasiloxane] + Cc1ccccc1C
Conditions | refractive index
288.15 K, φ1 = 0.1323 | 1.49868
288.15 K, φ1 = 0.2522 | 1.49036
288.15 K, φ1 = 0.3383 | 1.4844
288.15 K, φ1 = 0.4201 | 1.47866
288.15 K, φ1 = 0.4909 | 1.47364
288.15 K, φ1 = 0.5559 | 1.46898
288.15 K, φ1 = 0.6028 | 1.4657
288.15 K, φ1 = 0.6571 | 1.46179
288.15 K, φ1 = 0.7017 | 1.45858
288.15 K, φ1 = 0.7422 | 1.4556
288.15 K, φ1 = 0.7787 | 1.45298
288.15 K, φ1 = 0.8113 | 1.45065
288.15 K, φ1 = 0.842 | 1.44839
288.15 K, φ1 = 0.8679 | 1.44648
288.15 K, φ1 = 0.8958 | 1.44445
288.15 K, φ1 = 0.9198 | 1.44269
288.15 K, φ1 = 0.942 | 1.44102
288.15 K, φ1 = 0.9794 | 1.43827
288.15 K, φ1 = 1 | 1.43674
298.15 K, φ1 = 0.1324 | 1.49359
298.15 K, φ1 = 0.2524 | 1.48535
298.15 K, φ1 = 0.3385 | 1.47939
298.15 K, φ1 = 0.4203 | 1.4737
298.15 K, φ1 = 0.4911 | 1.46872
298.15 K, φ1 = 0.5561 | 1.46412
298.15 K, φ1 = 0.603 | 1.46081
298.15 K, φ1 = 0.6573 | 1.45693
298.15 K, φ1 = 0.7019 | 1.45375
298.15 K, φ1 = 0.7423 | 1.45081
298.15 K, φ1 = 0.7788 | 1.44819
298.15 K, φ1 = 0.8114 | 1.44585
298.15 K, φ1 = 0.8421 | 1.4436
298.15 K, φ1 = 0.868 | 1.44172
298.15 K, φ1 = 0.8958 | 1.43977
298.15 K, φ1 = 0.9199 | 1.43795
298.15 K, φ1 = 0.9421 | 1.4363
298.15 K, φ1 = 0.9794 | 1.43354
298.15 K, φ1 = 1 | 1.43202
308.15 K, φ1 = 0.1325 | 1.48836
308.15 K, φ1 = 0.2526 | 1.48017
308.15 K, φ1 = 0.3387 | 1.47425
308.15 K, φ1 = 0.4205 | 1.46859
308.15 K, φ1 = 0.4913 | 1.46366
308.15 K, φ1 = 0.5563 | 1.45909
308.15 K, φ1 = 0.6032 | 1.45581
308.15 K, φ1 = 0.6575 | 1.45196
308.15 K, φ1 = 0.7021 | 1.44881
308.15 K, φ1 = 0.7425 | 1.4459
308.15 K, φ1 = 0.779 | 1.44332
308.15 K, φ1 = 0.8116 | 1.441
308.15 K, φ1 = 0.8422 | 1.43878
308.15 K, φ1 = 0.8681 | 1.43691
308.15 K, φ1 = 0.8959 | 1.43489
308.15 K, φ1 = 0.9199 | 1.43317
308.15 K, φ1 = 0.9421 | 1.43154
308.15 K, φ1 = 0.9794 | 1.42881
308.15 K, φ1 = 1 | 1.4273
318.15 K, φ1 = 0.1326 | 1.48315
318.15 K, φ1 = 0.2527 | 1.47503
318.15 K, φ1 = 0.3389 | 1.46915
318.15 K, φ1 = 0.4207 | 1.46354
318.15 K, φ1 = 0.4915 | 1.45862
318.15 K, φ1 = 0.5565 | 1.45412
318.15 K, φ1 = 0.6034 | 1.45086
318.15 K, φ1 = 0.6577 | 1.44704
318.15 K, φ1 = 0.7022 | 1.44393
318.15 K, φ1 = 0.7426 | 1.44105
318.15 K, φ1 = 0.7791 | 1.43846
318.15 K, φ1 = 0.8117 | 1.4362
318.15 K, φ1 = 0.8423 | 1.43396
318.15 K, φ1 = 0.8682 | 1.43215
318.15 K, φ1 = 0.896 | 1.43012
318.15 K, φ1 = 0.92 | 1.4284
318.15 K, φ1 = 0.9421 | 1.42678
318.15 K, φ1 = 0.9794 | 1.42407
318.15 K, φ1 = 1 | 1.42257
328.15 K, φ1 = 0.1326 | 1.4779
328.15 K, φ1 = 0.2528 | 1.46957
328.15 K, φ1 = 0.339 | 1.46397
328.15 K, φ1 = 0.4208 | 1.45836
328.15 K, φ1 = 0.4916 | 1.45349
328.15 K, φ1 = 0.5567 | 1.44897
328.15 K, φ1 = 0.6035 | 1.44567
328.15 K, φ1 = 0.6578 | 1.44199
328.15 K, φ1 = 0.7023 | 1.43887
328.15 K, φ1 = 0.7427 | 1.43597
328.15 K, φ1 = 0.7792 | 1.43343
328.15 K, φ1 = 0.8118 | 1.43123
328.15 K, φ1 = 0.8423 | 1.42902
328.15 K, φ1 = 0.8683 | 1.42718
328.15 K, φ1 = 0.896 | 1.42526
328.15 K, φ1 = 0.92 | 1.42355
328.15 K, φ1 = 0.9422 | 1.42195
328.15 K, φ1 = 0.9794 | 1.41933
328.15 K, φ1 = 1 | 1.41785
